Results published in PMC12073189, “Synthesis and Evaluation of a Novel Zuranolone Analog with High GABAA Receptor PAM Activity and Excellent Pharmacokinetic Profiles” (Molecules, 2025).

Experiments:
[1] = biological target: T1, α1β2γ2 GABAA receptor (Homo sapiens, UniProt P14867+P47870); assay: Whole-cell electrophysiology of GABA-evoked currents, LTK cells; type: cell-based; conditions: for activity as % of that of Zuranolone: GABAA receptor subtypes; for EC50 / Emax: LTK cells, n = 3; for EC50: 1 μmol/L GABA (EC20), read-out: α1β2γ2 EC50; for Emax: current induced by 1 μmol/L GABA = 100%
T1 construct: expressed in transfected cells
Procedure: (§1) The α1β2γ2 and α4β3δ GABAA receptor subtypes, representing synaptic and extrasynaptic subunit compositions in neurons, are widely utilized for screening new NAS drugs. In this study, a preliminary SAR study was conducted on a series of Zuranolone analogs using the LogP values predicted by ADMETlab3.0 software, recombinant human GABAA receptor cell lines, and in vitro liver microsome stability assays. The results are summarized in Table 1, Table 2, and Table 3, respectively.
(§2) The effects of Zuranolone and synthetic analogs on GABA-evoked currents were assessed in LTK cells stably expressing α1β2γ2 GABAA receptor subunits (n = 3) or CHO cells transiently expressing α4β3δ receptors (n = 3). Whole-cell mode recordings were conducted using the HEKA EPC-10 amplifier and analyzed with PatchMaster software (version 2x90, HEKA Elektronik, Lambrecht, Germany). High-throughput whole-cell recordings were performed using the Q-Patch method from Sophion. Test substances were dissolved in DMSO (dimethyl sulfoxide) to prepare 10 mmol/L stock solutions, then diluted with perfusion bath solution to concentrations ranging from 0.01 to 10 μmol/L. In this experiment, the effects of Zuranolone and its synthetic analogs on GABA-induced currents were examined in the presence of a submaximal agonist concentration at 1 μmol/L GABA (EC20). Cells were pre-incubated with increasing doses of test substances for 30 s, followed by 2 s of GABA stimulation, and currents were recorded. The maximum efficacy (Emax) of the GABAA receptor is expressed with the current induced by 1 μmol/L GABA taken as 100%, and the percentage after treatment with the test compound is calculated. The EC50 values are determined by fitting the three concentration–response curves recorded from three cells.

[2] = biological target: T2, α4β3δ GABAA receptor (Homo sapiens, UniProt P28472+P48169); assay: Whole-cell electrophysiology of GABA-evoked currents, CHO cells; type: cell-based; conditions: for EC50 / Emax: CHO cells, n = 3; for EC50: 1 μmol/L GABA (EC20), read-out: α4β3δ EC50; for Emax: current induced by 1 μmol/L GABA = 100%
T2 construct: expressed in transfected cells; host or cells: CHO cells (transient expression)
Procedure: as §1, §2

[3] = Liver microsome metabolic stability (RLM); type: in vitro ADME, rat; conditions: pH 7.4; rat liver microsomes; read-out: RLM T1/2
Procedure: (§3) We quantified S1–S15 and Zuranolone using a UPLC-MS/MS (Agilent 1290 Infinity II UHPLC (Agilent Technologies, Santa Clara, CA, USA) coupled with a QTRAP 5500 MS/MS (ESI source) (SCIEX, Redwood City, CA, USA for MS/MS). The method assessed the content level of S9 and Zuranolone in microsome metabolism and in rat brain tissue and plasma. An ACQUITY UPLC Peptide BEH C18 column (Waters; 50 × 2.1 mm, 1.7 μm; 60 °C; Waters Corporation, Milford, MA, USA) was used with a mobile phase of 0.02% propionic acid in water (A) and acetonitrile (B). The gradient elution of the mobile phase B is carried out as follows: it is 10% from 0 to 0.5 min, 90% from 0.8 to 2.5 min, and 10% from 2.8 to 3.5 min, with a flow rate of 0.40 mL/min. Quantitative analysis was performed on a QTRAP 5500 MS (SCIEX, Redwood City, CA, USA) in positive ionization mode with MRM (multiple reaction monitoring), using progesterone-d9 as the internal standard. MRM transitions and parameters were optimized for each analyte, with collision energies of 25 V (S1–S15), 23 V (Zuranolone), and 30 V (IS), and declustering potentials of 80 V (S1–S15), 90 V (Zuranolone), and 180 V (IS). Other conditions were as follows: curtain gas 10 psi, collision gas ‘medium’, ion spray voltage 5500 V, temperature 500 °C, and ionization source gases 1 and 2 at 50 psi.
(§4) To evaluate the metabolic stability of compounds S1–S15 and Zuranolone in RLM and HLM, we designed the following in vitro liver microsome metabolism assay protocol. In a 1.5 mL centrifuge tube, sequentially add 173 μL of PBS (0.1 M, pH 7.4), 5 μL of liver microsomes (20 mg/mL), and 2 μL of the test compound (100 μmol/L). After thorough mixing, pre-incubate at 37 °C for 10 min. Subsequently, add 20 μL of NADPH to initiate the metabolism, with a parallel control without NADPH, to validate the background signal. Samples were collected at 0, 5, 10, 20, 30, and 60 min post-reaction initiation. At each designated time point, we quenched the reaction with ice-cold acetonitrile (600 μL). After centrifuging the mixture, we analyzed the supernatant using UPLC-MS/MS. For data analysis, the compound concentration at 0 min was set as 100%, with concentrations at subsequent time points expressed as residual percentages relative to the initial value, and the in vitro half-life (T1/2) and intrinsic clearance (CLint) were calculated.

[4] = Liver microsome metabolic stability (HLM); type: in vitro ADME, human; conditions: pH 7.4; human liver microsomes; read-out: HLM T1/2
Procedure: as §3, §4

T1 sequence (P14867 28-456): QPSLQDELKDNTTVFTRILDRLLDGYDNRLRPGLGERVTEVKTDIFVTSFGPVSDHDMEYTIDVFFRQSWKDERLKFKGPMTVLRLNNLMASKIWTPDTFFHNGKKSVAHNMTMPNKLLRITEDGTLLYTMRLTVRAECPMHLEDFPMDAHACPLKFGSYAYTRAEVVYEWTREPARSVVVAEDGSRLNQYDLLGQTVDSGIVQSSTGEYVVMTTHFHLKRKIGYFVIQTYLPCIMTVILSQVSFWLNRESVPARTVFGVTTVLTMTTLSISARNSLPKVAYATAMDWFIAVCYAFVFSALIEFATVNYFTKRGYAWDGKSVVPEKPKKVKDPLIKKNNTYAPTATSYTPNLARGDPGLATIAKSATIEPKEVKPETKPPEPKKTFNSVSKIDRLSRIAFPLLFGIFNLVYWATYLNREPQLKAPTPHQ
T1 sequence (P47870 25-512 limits assumed): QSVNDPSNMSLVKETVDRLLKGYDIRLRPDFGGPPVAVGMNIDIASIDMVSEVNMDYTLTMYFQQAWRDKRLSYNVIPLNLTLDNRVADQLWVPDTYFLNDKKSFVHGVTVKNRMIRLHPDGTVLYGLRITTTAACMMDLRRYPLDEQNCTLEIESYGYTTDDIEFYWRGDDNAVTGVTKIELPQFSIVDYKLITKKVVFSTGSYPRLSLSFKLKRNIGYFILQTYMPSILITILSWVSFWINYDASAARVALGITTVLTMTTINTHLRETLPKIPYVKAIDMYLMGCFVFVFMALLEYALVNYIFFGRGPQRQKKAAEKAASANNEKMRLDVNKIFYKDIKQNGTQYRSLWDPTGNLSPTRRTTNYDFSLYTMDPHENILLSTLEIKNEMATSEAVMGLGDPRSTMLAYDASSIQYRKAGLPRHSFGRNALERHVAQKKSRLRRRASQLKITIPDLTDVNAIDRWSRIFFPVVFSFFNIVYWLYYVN
T1 sequence (P18507 40-475 partner): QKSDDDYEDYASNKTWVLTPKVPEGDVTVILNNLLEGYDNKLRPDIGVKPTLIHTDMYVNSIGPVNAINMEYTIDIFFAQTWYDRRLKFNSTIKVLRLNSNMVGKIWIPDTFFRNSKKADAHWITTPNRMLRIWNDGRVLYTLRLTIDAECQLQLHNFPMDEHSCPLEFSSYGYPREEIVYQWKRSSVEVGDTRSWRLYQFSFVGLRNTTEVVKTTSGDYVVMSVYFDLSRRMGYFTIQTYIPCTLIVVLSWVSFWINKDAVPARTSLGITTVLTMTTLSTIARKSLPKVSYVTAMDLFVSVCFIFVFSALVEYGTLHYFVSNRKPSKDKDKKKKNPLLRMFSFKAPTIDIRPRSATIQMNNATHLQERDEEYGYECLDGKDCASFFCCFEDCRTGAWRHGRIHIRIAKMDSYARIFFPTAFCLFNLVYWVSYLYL
T2 sequence (P48169 36-554): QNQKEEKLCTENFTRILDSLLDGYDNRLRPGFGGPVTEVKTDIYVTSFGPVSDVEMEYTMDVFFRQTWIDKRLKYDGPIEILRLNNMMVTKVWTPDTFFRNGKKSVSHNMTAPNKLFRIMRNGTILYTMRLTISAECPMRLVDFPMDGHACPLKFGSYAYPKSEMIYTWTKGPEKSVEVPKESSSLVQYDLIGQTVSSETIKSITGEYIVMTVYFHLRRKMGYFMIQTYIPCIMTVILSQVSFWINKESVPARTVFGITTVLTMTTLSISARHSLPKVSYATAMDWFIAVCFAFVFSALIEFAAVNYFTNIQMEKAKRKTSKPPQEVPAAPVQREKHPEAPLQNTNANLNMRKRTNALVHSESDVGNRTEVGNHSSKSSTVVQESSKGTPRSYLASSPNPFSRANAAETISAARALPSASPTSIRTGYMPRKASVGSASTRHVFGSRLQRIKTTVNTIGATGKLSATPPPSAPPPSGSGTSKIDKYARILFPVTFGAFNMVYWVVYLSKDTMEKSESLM
T2 sequence (P28472 26-473): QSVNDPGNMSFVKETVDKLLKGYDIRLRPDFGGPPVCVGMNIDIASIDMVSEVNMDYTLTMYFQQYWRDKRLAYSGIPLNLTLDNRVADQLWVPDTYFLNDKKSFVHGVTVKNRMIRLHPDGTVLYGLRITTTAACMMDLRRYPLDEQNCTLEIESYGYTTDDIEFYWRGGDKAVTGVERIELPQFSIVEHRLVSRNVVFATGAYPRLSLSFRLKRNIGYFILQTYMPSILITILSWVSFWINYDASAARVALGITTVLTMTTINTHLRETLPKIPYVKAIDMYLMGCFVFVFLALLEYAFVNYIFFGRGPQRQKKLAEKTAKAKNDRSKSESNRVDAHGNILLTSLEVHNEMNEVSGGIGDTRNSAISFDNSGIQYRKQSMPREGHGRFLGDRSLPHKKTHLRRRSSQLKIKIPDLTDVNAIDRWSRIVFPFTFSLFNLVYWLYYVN
T2 sequence (O14764 25-452 partner): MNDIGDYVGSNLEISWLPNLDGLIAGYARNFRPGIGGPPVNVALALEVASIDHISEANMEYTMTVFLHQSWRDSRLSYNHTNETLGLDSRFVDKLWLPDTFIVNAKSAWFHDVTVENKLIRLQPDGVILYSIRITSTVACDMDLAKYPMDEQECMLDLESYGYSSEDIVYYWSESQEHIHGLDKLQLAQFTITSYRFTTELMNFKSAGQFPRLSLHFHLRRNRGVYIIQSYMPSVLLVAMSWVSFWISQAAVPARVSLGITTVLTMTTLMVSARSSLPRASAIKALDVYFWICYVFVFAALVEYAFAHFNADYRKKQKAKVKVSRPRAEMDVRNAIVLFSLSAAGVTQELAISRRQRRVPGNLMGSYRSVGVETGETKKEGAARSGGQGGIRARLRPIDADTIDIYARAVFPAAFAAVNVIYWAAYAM

Structure (SMILES)	activity as % of that of Zuranolone ([1]; not separated)	EC50 [1]	Emax [1]	EC50 [2]	Emax [2]	half-life at 1 μmol/L [3]	half-life at 1 μmol/L [4]	potency as % of that of Zuranolone ([1]; synaptic GABAA receptors)	potency as % of that of Zuranolone ([2]; extrasynaptic GABAA receptors)	potency higher than Zuranolone ([1]; synaptic and extrasynaptic GABAA receptor subtypes, not separated)	half-life at 1 µM [3]	half-life at 1 µM [4]
C[C@@]1(O)CC[C@H]2[C@H](CC[C@@H]3[C@@H]2CC[C@]2(C)[C@@H](C(=O)Cn4ncn(-c5ccc(F)cc5)c4=O)CC[C@@H]32)C1 [S10]	less than 50%	0.0124 ± 0.005 µM	294 ± 52%	0.148 ± 0.025 µM	428 ± 45%	10 min	33 min					
C[C@@]1(O)CC[C@H]2[C@H](CC[C@@H]3[C@@H]2CC[C@]2(C)[C@@H](C(=O)Cn4cnn(-c5cc(F)cc(C#N)c5)c4=O)CC[C@@H]32)C1 [S13]		0.072 ± 0.016 µM	518 ± 87%	0.037 ± 0.012 µM	549 ± 101%	90 min	40 min					
C[C@@]1(O)CC[C@H]2[C@H](CC[C@@H]3[C@@H]2CC[C@]2(C)[C@@H](C(=O)Cn4cnn(-c5cccnc5)c4=O)CC[C@@H]32)C1 [S5]		0.373 ± 0.045 µM	773 ± 87%	0.061 ± 0.015 µM	391 ± 64%	11 min	24 min					
Cc1cc(-n2ncn(CC(=O)[C@H]3CC[C@H]4[C@@H]5CC[C@@H]6C[C@](C)(O)CC[C@@H]6[C@H]5CC[C@]34C)c2=O)cc(C)n1 [S4]	less than 50%	0.171 ± 0.04 µM	691 ± 72%	0.041 ± 0.019 µM	563 ± 85%							
C[C@@]1(O)CC[C@H]2[C@H](CC[C@@H]3[C@@H]2CC[C@]2(C)[C@@H](C(=O)Cn4c(=O)n(-c5ccccc5)c5ccccc54)CC[C@@H]32)C1 [S15]		0.031 ± 0.012 µM	305 ± 62%	0.055 ± 0.015 µM	470 ± 94%	210 min	248 min					
C[C@@]1(O)CC[C@H]2[C@H](CC[C@@H]3[C@@H]2CC[C@]2(C)[C@@H](C(=O)Cn4cnn(-c5ccnc(C(F)F)c5)c4=O)CC[C@@H]32)C1 [S8]		0.083 ± 0.024 µM	600 ± 69%	0.049 ± 0.015 µM	432 ± 55%	29 min	23 min	140%	150%			
C[C@@]1(O)CC[C@H]2[C@H](CC[C@@H]3[C@@H]2CC[C@]2(C)[C@@H](C(=O)Cn4cnn(-c5cc(Cl)ccn5)c4=O)CC[C@@H]32)C1 [S7]		0.109 ± 0.027 µM	624 ± 29%	0.072 ± 0.021 µM	589 ± 63%	21 min	69 min			approximately 10%		
COCCn1ncn(CC(=O)[C@H]2CC[C@H]3[C@@H]4CC[C@@H]5C[C@](C)(O)CC[C@@H]5[C@H]4CC[C@]23C)c1=O [S1]		0.227 ± 0.052 µM	735 ± 75%	0.086 ± 0.025 µM	609 ± 83%						11 min	34 min
C[C@@]1(O)CC[C@H]2[C@H](CC[C@@H]3[C@@H]2CC[C@]2(C)[C@@H](C(=O)Cn4cnn(-c5cccc(C(N)=O)c5)c4=O)CC[C@@H]32)C1 [S12]	less than 50%	0.153 ± 0.033 µM	764 ± 65%	0.159 ± 0.02 µM	386 ± 50%	18 min	29 min					
C[C@@]1(O)CC[C@H]2[C@H](CC[C@@H]3[C@@H]2CC[C@]2(C)[C@@H](C(=O)Cn4ncn(CC5CC5)c4=O)CC[C@@H]32)C1 [S2]		0.058 ± 0.01 µM	320 ± 25%	0.14 ± 0.01 µM	450 ± 35%							
C[C@@]1(O)CC[C@H]2[C@H](CC[C@@H]3[C@@H]2CC[C@]2(C)[C@@H](C(=O)Cn4cnn(CCOC(F)(F)F)c4=O)CC[C@@H]32)C1 [S14]		0.77 ± 0.104 µM	576 ± 78%	0.46 ± 0.059 µM	889 ± 126%	23 min	31 min					
COc1ccc(-n2ncn(CC(=O)[C@H]3CC[C@H]4[C@@H]5CC[C@@H]6C[C@](C)(O)CC[C@@H]6[C@H]5CC[C@]34C)c2=O)cn1 [S3]	less than 50%	0.167 ± 0.037 µM	389 ± 50%	0.134 ± 0.032 µM	474 ± 53%	16 min	73 min					
